Structures are written as SMILES.

One assay relates to MCF7. Description: Cytotoxicity against human MCF7 cells after 48 hrs by MTT assay. The class given is functional, cell-based. The following applies: MCF7, 48 h. On the technique in general: Tetrazolium assays rely on reduction of a dye to a coloured formazan, in cell work by metabolically active cells.
Another assay relates to HepG2. Nature of the assay: Cytotoxicity against human HepG2 cells after 48 hrs by MTT assay. Format: functional, cell-based. The following applies: HepG2, 48 h.
A further assay concerns MDA-MB-231. Description: Cytotoxicity against human MDA-MB-231 cells after 48 hrs by MTT assay. Format: functional, cell-based. The settings on record: MDA-MB-231, 48 h.
A further assay has as its system BT-549. Nature of the assay: Cytotoxicity against human BT549 cells after 48 hrs by MTT assay. Format: functional, cell-based. The following applies: BT-549, 48 h.
The nature of assay [1]: Cytotoxicity against human MCF10A cells after 72 hrs by MTT assay. Format: cell-based. The following applies: MCF-10A.

Usually IC50 stands for the concentration that inhibits the measured activity by half. Higher therefore signals lower potency. Turning to `Clc1ccc(-c2ccc3ccccc3n2)c(Cl)c1`, the IC50 was 25 µM in the assay on MCF7; 31.6 µM in the assay on HepG2; more than 100 µM with MDA-MB-231; more than 100 µM in the assay on BT-549; more than 100 µM in assay [1].

With `Cc1ccc2nc(-c3cc(O)ccc3O)ccc2c1`, the IC50 is 28 µM with MCF7 and 19 µM in the assay on HepG2.

On to `Oc1ccccc1-c1ccc2ccccc2n1`, for which the IC50 in the assay on MCF7 and with HepG2 was more than 50 µM each time.

Turning to `Cc1ccc2nc(-c3ccccc3)ccc2c1`, the IC50 in the assay with MCF7 and with HepG2 was more than 50 µM each time.

On to `Brc1ccc(-c2ccc3ccccc3n2)cc1`, for which the IC50 in the assay on MCF7 is 12 µM; in the assay with HepG2 it was 9 µM; with MDA-MB-231 it was more than 100 µM; in the assay with BT-549, more than 100 µM; in assay [1], 60.3 µM.

Turning to `Cc1ccc2nc(-c3ccc(Cl)cc3Cl)ccc2c1`, the 50% inhibitory concentration (IC50) with MCF7 and in the assay on HepG2 was more than 50 µM each time.

As for `Cc1ccc2nc(-c3cccc([N+](=O)[O-])c3)ccc2c1`, the IC50 in the assay with MCF7 is 23 µM; in the assay with HepG2, 37 µM; with MDA-MB-231, more than 100 µM; in the assay on BT-549 it was more than 100 µM; in assay [1], more than 100 µM.

In the case of `Cc1ccc2nc(-c3ccc(N)cc3)ccc2c1`, the IC50 was found to be 34 µM in the assay on MCF7 and 41 µM in the assay with HepG2.

Turning to `Nc1ccc(-c2ccc3ccc(Cl)cc3n2)cc1`, the IC50 in the assay on MCF7 was 6 µM; with HepG2, 11 µM; in the assay on MDA-MB-231 it was more than 100 µM; with BT-549, more than 100 µM; in assay [1], more than 100 µM.

Regarding `Cc1ccc2nc(-c3ccccc3Br)ccc2c1`, the IC50 in the assay with MCF7 and in the assay with HepG2 was more than 50 µM throughout.

The values are drawn from ChEMBL document CHEMBL3399920, “Microwave-assisted synthesis, characterization and cytotoxic studies of novel estrogen receptor α ligands towards human breast cancer cells” (Bioorg Med Chem Lett, 2015).
